Measurements reported in the supplement of paper PMC10307832.

Assays:
Assay in all cases: relative viability (nuclei count vs DMSO), 5 days (fraction); higher = more cells survive
Tipifarnib = compound: Cn1cncc1[C@@](N)(c1ccc(Cl)cc1)c1ccc2c(c1)c(-c1cccc(Cl)c1)cc(=O)n2C [Tipifarnib]
Summary of the method: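 After an overnight hold at 37 °C, lung cancer cell lines in 1536-well plates were pinned with five library-drug doses (not always all listed), each √10 from the next, on vehicle-anchored plates. The cells stayed 5 days without fresh medium, then a one-step fix, permeabilisation and Hoechst stain preceded 4× imaging and MetaXpress nuclear counts. A plate passed only with control CV under 25% and at least one doubling. Viability is the median, over plates, of treated-well nuclei relative to vehicle-well nuclei.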

Tipifarnib + Olaparib = compound: Cn1cncc1[C@@](N)(c1ccc(Cl)cc1)c1ccc2c(c1)c(-c1cccc(Cl)c1)cc(=O)n2C [Tipifarnib] + O=C(c1cc(Cc2n[nH]c(=O)c3ccccc23)ccc1F)N1CCN(C(=O)C2CC2)CC1 [Olaparib] (partner 8 µM)
Summary of the method: (§1)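 Relative viability divides the nuclei count in treated wells by that in vehicle wells. Lung cancer cell lines were seeded in 1536-well plates, dosed by pin tool the next day, and fixed and stained after 5 days in one step with final 0.05% Triton X-100, 1% formaldehyde and 1 ug/ml Hoechst. Dosing was a single drug or a fixed anchor-drug dose plus five library-drug doses (not always all listed) in √10 steps, and values are medians of duplicate plates imaged at 4×.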

Tipifarnib + Phenformin = compound: Cn1cncc1[C@@](N)(c1ccc(Cl)cc1)c1ccc2c(c1)c(-c1cccc(Cl)c1)cc(=O)n2C [Tipifarnib] + N=C(N)NC(=N)NCCc1ccccc1 [Phenformin] (partner 250 µM)
Summary of the method: as §1

Tipifarnib + Trametinib = compound: Cn1cncc1[C@@](N)(c1ccc(Cl)cc1)c1ccc2c(c1)c(-c1cccc(Cl)c1)cc(=O)n2C [Tipifarnib] + CC(=O)Nc1cccc(-n2c(=O)n(C3CC3)c(=O)c3c(Nc4ccc(I)cc4F)n(C)c(=O)c(C)c32)c1 [Trametinib] (partner 0.02 µM)
Summary of the method: as §1

Cell Line	relative viability (Tipifarnib; 0.01 µM)	relative viability (Tipifarnib; 0.03162 µM)	relative viability (Tipifarnib; 0.1 µM)	relative viability (Tipifarnib; 0.3162 µM)	relative viability (Tipifarnib; 1 µM)	relative viability (Tipifarnib + Olaparib; first compound 0.01 µM)	relative viability (Tipifarnib + Olaparib; first compound 0.03162 µM)	relative viability (Tipifarnib + Olaparib; first compound 0.1 µM)	relative viability (Tipifarnib + Olaparib; first compound 0.3162 µM)	relative viability (Tipifarnib + Olaparib; first compound 1 µM)	relative viability (Tipifarnib + Phenformin; first compound 0.01 µM)	relative viability (Tipifarnib + Phenformin; first compound 0.03162 µM)	relative viability (Tipifarnib + Phenformin; first compound 0.1 µM)	relative viability (Tipifarnib + Phenformin; first compound 0.3162 µM)	relative viability (Tipifarnib + Phenformin; first compound 1 µM)	relative viability (Tipifarnib + Trametinib; first compound 0.01 µM)	relative viability (Tipifarnib + Trametinib; first compound 0.03162 µM)	relative viability (Tipifarnib + Trametinib; first compound 0.1 µM)	relative viability (Tipifarnib + Trametinib; first compound 0.3162 µM)	relative viability (Tipifarnib + Trametinib; first compound 1 µM)
LCLC-97TM1	0.98	0.707	0.878	0.703	0.19	0.447	0.245	0.315	0.229	0.239	0.423	0.382	0.446	0.355	0.231	0.202	0.209	0.171	0.17	0.157
HARA	1.14	1.03	1.04	0.826	0.348	0.842	0.865	0.762	0.996	0.76	0.52	0.494	0.501	0.412	0.156	0.784	0.77	0.635	0.588	0.508
HCC-78	1	0.948	0.808	0.768	0.633	0.93	1.01	0.863	0.758	0.636	0.699	0.756	0.611	0.558	0.423	0.966	0.766	0.647	0.623	0.664
NCI-H1666	0.99	0.858	0.858	0.8	0.795	0.737	0.672	0.779	0.731	0.721	0.526	0.502	0.552	0.471	0.575	0.832	0.798	0.846	0.811	0.679
NCI-H2347	0.831	0.89	0.735	0.676	0.691	0.59	0.46	0.563	0.473	0.472	0.474	0.405	0.501	0.318	0.315	0.308	0.283	0.269	0.261	0.293
NCI-H838	0.9	0.892	0.741	0.722	0.621	0.741	0.675	0.683	0.626	0.617	0.547	0.504	0.421	0.44	0.389	0.47	0.483	0.434	0.431	0.374
NCI-H2023	0.868	0.665	0.502	0.458	0.288	0.489	0.36	0.373	0.298	0.343	0.415	0.381	0.273	0.272	0.236	0.46	0.373	0.403	0.228	0.234
201T	0.999	1.02	0.932	0.893	0.669	0.851	0.86	0.83	0.733	0.793	0.493	0.441	0.457	0.402	0.362	0.75	0.734	0.722	0.656	0.649
NCI-H1915	0.772	0.763	0.606	0.494	0.42	0.237	0.248	0.25	0.231	0.242	0.383	0.359	0.341	0.267	0.236	0.298	0.269	0.214	0.201	0.195
NCI-H2009	1.03	0.876	0.766	0.697	0.575	0.729	0.714	0.585	0.558	0.469	0.525	0.492	0.388	0.386	0.352	0.265	0.21	0.192	0.183	0.185
BEN	1.2	1.03	0.926	0.853	0.752	1.26	1.11	0.954	0.96	0.954	0.294	0.272	0.273	0.255	0.262	0.95	0.87	0.873	0.856	0.761
PC-14	0.9	0.695	0.481	0.32	0.263	0.278	0.206	0.279	0.176	0.176	0.512	0.494	0.282	0.239	0.128	0.579	0.357	0.447	0.2	0.334
SK-MES-1	1.07	0.933	0.909	0.727	0.704	0.733	0.612	0.783	0.622	0.459	0.659	0.663	0.651	0.619	0.57	0.465	0.539	0.54	0.459	0.601
NCI-H727	1.16	1.11	0.876	0.685	0.645	0.702	0.685	0.866	0.802	0.901	0.529	0.501	0.544	0.617	0.539	0.425	0.395	0.379	0.384	0.404
NCI-H1355	1.04	0.852	0.68	0.675	0.607	0.801	0.706	0.55	0.559	0.507	0.427	0.44	0.429	0.403	0.344	0.486	0.387	0.357	0.352	0.339
NCI-H1975	0.914	1.11	0.979	0.705	0.59	0.863	0.764	0.782	0.559	0.505	0.435	0.403	0.413	0.347	0.274	0.316	0.272	0.337	0.252	0.288
LK-2	1.03	0.857	0.809	0.615	0.607	0.779	0.651	0.443	0.329	0.347	0.471	0.11	0.428	0.248	0.184	0.613	0.971	0.766	0.559	0.597
NCI-H661	1.03	1.02	0.934	0.905	0.849	0.769	0.738	0.661	0.605	0.617	0.29	0.283	0.275	0.261	0.309	0.627	0.487	0.482	0.396	0.456

Cell Line	relative viability (Tipifarnib; 0.01 µM)	relative viability (Tipifarnib; 0.03162 µM)	relative viability (Tipifarnib; 0.1 µM)	relative viability (Tipifarnib; 0.3162 µM)	relative viability (Tipifarnib; 1 µM)	relative viability (Tipifarnib + Olaparib; first compound 0.01 µM)	relative viability (Tipifarnib + Olaparib; first compound 0.03162 µM)	relative viability (Tipifarnib + Olaparib; first compound 0.1 µM)	relative viability (Tipifarnib + Olaparib; first compound 0.3162 µM)	relative viability (Tipifarnib + Olaparib; first compound 1 µM)	relative viability (Tipifarnib + Phenformin; first compound 0.01 µM)	relative viability (Tipifarnib + Phenformin; first compound 0.03162 µM)	relative viability (Tipifarnib + Phenformin; first compound 0.1 µM)	relative viability (Tipifarnib + Phenformin; first compound 0.3162 µM)	relative viability (Tipifarnib + Phenformin; first compound 1 µM)	relative viability (Tipifarnib + Trametinib; first compound 0.01 µM)	relative viability (Tipifarnib + Trametinib; first compound 0.03162 µM)	relative viability (Tipifarnib + Trametinib; first compound 0.1 µM)	relative viability (Tipifarnib + Trametinib; first compound 0.3162 µM)	relative viability (Tipifarnib + Trametinib; first compound 1 µM)
HCC-366	1.06	0.939	0.781	0.541	0.0913	0.302	0.327	0.164	0.199	0.106	0.619	0.569	0.387	0.313	0.0592	0.415	0.371	0.197	0.147	0.102
HOP-62	0.833	0.57	0.482	0.333	0.454	0.337	0.395	0.205	0.193	0.2	0.573	0.418	0.403	0.353	0.347	0.375	0.297	0.258	0.261	0.282
NCI-H1944	0.886	0.65	0.514	0.437	0.429	0.41	0.364	0.356	0.376	0.382	0.207	0.194	0.163	0.155	0.168	0.438	0.371	0.348	0.297	0.302
SW 1573	0.965	0.603	0.477	0.42	0.357	0.428	0.305	0.307	0.233	0.27	0.362	0.299	0.268	0.156	0.197	0.487	0.354	0.362	0.255	0.25
LU99A	1	0.836	0.643	0.556	0.394	0.293	0.23	0.226	0.245	0.202	0.918	0.623	0.515	0.404	0.359	0.394	0.431	0.312	0.25	0.209
NCI-H647	0.883	0.807	0.727	0.404	0.196	0.566	0.472	0.39	0.142	0.142	0.499	0.353	0.469	0.262	0.114	0.475	0.419	0.418	0.254	0.225
A-427	1.12	0.981	0.987	0.826	0.609	0.834	0.696	0.697	0.694	0.727	0.31	0.272	0.319	0.227	0.226	0.872	0.758	0.633	0.654	0.549
COR-L 105	0.935	0.807	0.734	0.696	0.571	0.691	0.725	0.59	0.546	0.584	0.387	0.389	0.447	0.339	0.281	0.409	0.491	0.427	0.43	0.369
NCI-H441	1.33	0.751	0.718	0.568	0.393	0.651	0.39	0.523	0.306	0.277	0.984	0.619	0.465	0.525	0.329	0.429	0.319	0.372	0.228	0.225
EBC-1	0.837	0.383	0.353	0.257	0.259	0.648	0.411	0.332	0.228	0.229	–	–	–	–	–	–	–	–	–	–
NCI-H1648	1.03	0.761	0.896	0.651	0.58	0.868	0.757	0.572	0.533	0.456	–	–	–	–	–	0.481	0.414	0.523	0.466	0.481
ABC-1	0.959	–	0.88	0.756	0.663	0.7	0.776	0.819	0.986	0.912	0.241	–	0.264	0.242	0.231	–	–	–	–	–
NCI-H1563	0.992	1.02	0.876	0.935	0.794	–	–	–	–	–	0.631	0.696	0.655	0.637	0.577	–	–	–	–	–
NCI-H1299	1.04	0.937	0.958	0.836	0.832	0.984	0.932	0.973	0.791	0.783	–	–	–	–	–	–	–	–	–	–
A549	1.01	0.853	0.563	0.417	0.251	0.265	0.276	0.245	0.219	0.109	0.181	0.116	0.108	0.0861	0.0622	–	–	–	–	–
IA-LM	0.426	0.529	0.376	0.185	0.184	0.494	0.504	0.485	0.256	0.404	–	–	–	–	–	–	–	–	–	–
Calu-6	0.931	0.767	0.688	0.572	0.579	0.532	0.498	0.514	0.502	0.466	–	–	–	–	–	–	–	–	–	–
